Data taken from US4666897A, “Inhibition of mammalian collagenolytic enzymes by tetracyclines” (Research Foundation of State University, priority 1983, dated 1987).

Experiments:
[1] = biological target: T1, rat PMNL collagenolytic activity (PMNL collagenase) (Rattus norvegicus, UniProt O88766); assay: Rat PMNL collagenolytic activity in vitro (14C-collagen gel lysis); type: biochemical; details: for Collagenolytic Activity: % ^14 C-collagen gel lyzed / effect on PMNL collagenolytic activity, in words: Table 2; for Collagenolytic Activity: % ^14 C-collagen gel lyzed: PMNL extract (30 × 10^6 PMNLs per ml) + 20 ug/ml, control extract 39.0
T1 construct: An extract of PMNLs was prepared; from tissue; host or cells: extract of peritoneal exudate polymorphonuclear leucocytes of non-diabetic rats, elicited with glycogen
T1 sequence (O88766 102-466): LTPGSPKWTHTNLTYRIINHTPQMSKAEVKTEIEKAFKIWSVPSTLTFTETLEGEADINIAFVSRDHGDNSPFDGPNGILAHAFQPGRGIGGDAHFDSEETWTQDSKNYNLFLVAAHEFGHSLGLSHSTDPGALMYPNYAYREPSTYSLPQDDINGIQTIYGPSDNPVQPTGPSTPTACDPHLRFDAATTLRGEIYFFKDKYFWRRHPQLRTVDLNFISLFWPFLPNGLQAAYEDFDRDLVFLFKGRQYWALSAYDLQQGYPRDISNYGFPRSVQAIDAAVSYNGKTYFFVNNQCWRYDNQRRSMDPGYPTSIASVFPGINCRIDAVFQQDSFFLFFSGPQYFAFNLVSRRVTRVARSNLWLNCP
Experimental: To test the effect of physiologic levels of minocycline (the concentration in human serum, during a therapeutic regimen, is approximately 2 ug/ml; that in the gingival crevicular fluid is 4-5 times greater; Ciancio, et. al., 1980, J. Periodontol., 51, 531-534) on mammalian collagenolytic activity in vitro, peritonealexudate polymorphomuclear leucocytes (PMNLs) were collected from 15 mole (non-diabetic) rats 4 hours after I.P. injection of 0.15% glycogen. An extract of PMNLs was prepared, 250 μl aliquots of this extract were incubated with ^14 C-glycine labeled collagen fibrils for 14 hours at 35° C. (in the presence or absence of minocycline, or EDTA, or additional CaCl2), and collagenolytic activity was measured as described by Nicoll, et al., (Experientia., 37, 315-317).
The techniques used to measure the collagenolytic enzyme activity of gingival tissue in culture, and in polymorphonuclear leucocytes (PMNLs), are those described by Golub, et. al., (J. Dent. Res., 57, 520-525 (197)8) and Nicoll, et. al., (Experimentia, 37, 315-317, (1981)) with minor modifications.

[2] = system: fetal rat bones (radii and ulnae) in organ culture; assay: PTH-induced bone resorption in organ culture (45calcium release); type: cell-based; details: for effect on PTH-enhanced bone resorption, in words: concentrations 0.2-300 μg/ml
Experimental: The technique used to assess bone resorption is based on monitoring the release of radioactive calcium, previously incorporated by embryonic bones in vivo, during organ culture. Pregnant Sprague-Dawley rats were injected subcutaneously with 200 μCi of ^45 calcium chloride on the 18th day of gestation. The following day, the animals were killed, the fetuses removed, and the radii and ulnae dissected under aseptic conditions. […] The bones were then randomly distributed and each bone, either a radius or ulna, was incubated in 0.5 ml of culture media alone or in a media containing parathyroid hormone (PTH: human synthetic 1-34 peptide, Beckman Instruments, Inc., Palo Alto, California) added in a final concentration of 1.0 μg/ml; the experimental bones were incubated in the PTH containing medium to which was added different concentrations (0.2-300 μg/ml) of the antibiotics to be tested. The bones were cultured for 5 days, with the media being changed after day 2, and the incubation terminated. The bones were decalcified in 0.2 ml of 5% trichloroacetic acid and the ^45 calcium content of the residual bones and of the culture media was measured as described previously. (Werner and Raisz, Endocrinology, 90, 752 (1972 ) and Gomes, et. al., Calc. Tiss. Res., 19, 285 (1976)). The ^45 calcium released into the media was calculated as a percentage of the total radioactive calcium measured in the bones.

[3] = system: GCF collagenase and gingival disease in diabetic twins; assay: Human gingival crevicular fluid (GCF) study, diabetic twin brothers; type: in vivo; details: 7 days of treatment
Experimental: In a separate study involving humans, gingival crevicular fluid (GCF) samples were collected on filter paper strips inserted into 8 interproximal pockets of selected teeth in the maxillary arch of two twin brothers with juvenile-onset (insulin-dependent) diabetes mellitus. Fluid volume was immediately determined on a modified Periotron (Model 6000, Harco Electronics Ltd., Winnipeg, Canada); then incubated with 10 μl (^3 H-methyl) collagen (20,675 DPM) and 70 μl buffer (50 mM Tris-HCl, pH 7.8, containing 0.2 M sodium chloride and 5 mM calcium chloride). The GCF samples (or reagent blanks or trypsin controls) were incubated at 27° C. for 18 hours with gentle shaking. The reaction was stopped and undigested collagen precipitated by adding 10 μl 0.1 M phenanthroline in dioxane/water (1:1, v/v), 10 μl of nonradioactive methylated carrier collagen (2 mg/ml) in 50 mM Tris-HCl buffer containing 1M NaCl (pH 7.0), and 100 μl dioxane. After mixing, the radiolabeled collagen degradation products were collected by filtration and counted in a liquid scintillation spectrometer (Golub, et. al., 1976, J. Dent. Res., 55, 1049). Using this technique, the reaction blank (no enzyme or GCF added) released about 10% of the total substrate counts; 2-20 ng bacterial collagenase produced a linear increase in the release of radioactive counts from the ^3 H-collagen substrate (the 20 ng level of enzyme degraded 60% of the collagen substrate); and 50 ng trypsin released less than 1% of the counts above blank values. GCF collagenase activity was expressed as units of equivalent activity of vertebrate collagenase (obtained from New England Nuclear, Cat. No. NEK-016); 1 unit was operationally defined as the amount of enzyme that degrades 1 μg of collagen per hour at 27° C.
Four additional GCF samples were collected from other maxillary pockets of the same diabetic twin brothers on filter paper strips, their volume determined (see above), and collagenolytic activity assessed using the same procedure described above but with a different substrate (10 μl of (^3 H-propionate) collagen, NET-660, New England Nuclear Corp., Boston, Mass., 302,000 DPM).
Half of the 12 GCF samples per subject were activated by pretreatment with 1.04 uM trypsin followed by the addition of a 5-fold molar excess of soybean trypsin inhibitor. Samples were selected to be treated or not treated with trypsin by matching them for Gingival Index (Loe and Silness, Acta. Odont. Scand., 21, 533-551 (1967)), GCF flow, and for pocket depth; the clincal parameters (GI, PD) were measured immediately after GCF collection. All measurements were carried out immediately before antibiotic coverage and after 7 days of treatment with either pencillin G (lg. per day; patient three) or the tetracycline minocycline (200 mg/day; patient one).

[4] = system: ^14 C-glycine labeled collagen fibrils; assay: Lysis of 14C-collagen gel by control enzymes (no PMNL extract); type: biochemical; details: Table 1, 1 μg enzyme
[5] = penicillin G 1 g per day (P. D.) or minocycline 200 mg/day (K. D.)

O=C(O)CN(CCN(CC(=O)O)CC(=O)O)CC(=O)O [EDTA]
effect on PMNL collagenolytic (collagenase) activity, in words ([1]; Table 1): completely inihibited | Collagenolytic Activity: % ^14 C-collagen gel lysed ([1]; Table 1, PMNL extract + 54 mM, control extract 85.5): 3.1%

CN(C)[C@@H]1C(=O)C(C(N)=O)=C(O)[C@@]2(O)C(=O)C3=C(O)c4c(O)cccc4[C@@](C)(O)[C@H]3[C@H](O)[C@@H]12 [Terramycin, Oxytetracycline]
Collagenolytic Activity: % ^14 C-collagen gel lyzed [1]: 4.4%

CC1(C)S[C@@H]2[C@H](NC(=O)[C@H](N)c3ccccc3)C(=O)N2[C@H]1C(=O)O [ampicillin]
effect on PMNL collagenolytic activity, in words [1]: ineffective | Collagenolytic Activity: % ^14 C-collagen gel lyzed [1]: 35.7% | ^45 Calcium in Fetal Bone Released into Media (%) after 2 days incubation ([2]; Table 5, PTH + 6 μg/ml): 52.3 ± 1.9% | ^45 Calcium in fetal bone Released into media (%) after 5 days incubation ([2]; Table 5, PTH + 6 μg/ml): 92.2 ± 2.0% | ^45 Calcium in Fetal Bone Released into Media (%) after 2 days incubation ([2]; Table 5, PTH + 20 μg/ml): 52.8 ± 1.7% | ^45 Calcium in fetal bone Released into media (%) after 5 days incubation ([2]; Table 5, PTH + 20 μg/ml): 92.6 ± 0.5% | ^45 Calcium in Fetal Bone Released into Media (%) after 2 days incubation ([2]; Table 5, PTH + 40 μg/ml): 51.9 ± 2.1% | ^45 Calcium in fetal bone Released into media (%) after 5 days incubation ([2]; Table 5, PTH + 40 μg/ml): 94.2 ± 1.1% | ^45 Calcium in Fetal Bone Released into Media (%) after 2 days incubation ([2]; Table 5, PTH + 60 μg/ml): 50.9 ± 1.7% | ^45 Calcium in fetal bone Released into media (%) after 5 days incubation ([2]; Table 5, PTH + 60 μg/ml): 93.9 ± 0.7% | ^45 Calcium in Fetal Bone Released into Media (%) after 2 days incubation ([2]; Table 5, PTH + 200 μg/ml): 50.8 ± 1.8% | ^45 Calcium in fetal bone Released into media (%) after 5 days incubation ([2]; Table 5, PTH + 200 μg/ml): 91.4 ± 0.7% | effect on PTH-enhanced bone resorption, in words [2]: no detectable effect

Cc1nnc(SCC2=C(C(=O)O)N3C(=O)[C@@H](NC(=O)Cn4cnnn4)[C@H]3SC2)s1 [cefazolin]
effect on PMNL collagenolytic activity, in words [1]: ineffective | Collagenolytic Activity: % ^14 C-collagen gel lyzed [1]: 50.0% | ^45 Calcium in Fetal Bone Released into Media (%) after 2 days incubation ([2]; Table 5, PTH + 6 μg/ml): 50.8 ± 1.3% | ^45 Calcium in fetal bone Released into media (%) after 5 days incubation ([2]; Table 5, PTH + 6 μg/ml): 93.1 ± 0.5% | ^45 Calcium in Fetal Bone Released into Media (%) after 2 days incubation ([2]; Table 5, PTH + 20 μg/ml): 54.2 ± 1.4% | ^45 Calcium in fetal bone Released into media (%) after 5 days incubation ([2]; Table 5, PTH + 20 μg/ml): 93.6 ± 0.4% | ^45 Calcium in Fetal Bone Released into Media (%) after 2 days incubation ([2]; Table 5, PTH + 60 μg/ml): 54.5 ± 1.2% | ^45 Calcium in fetal bone Released into media (%) after 5 days incubation ([2]; Table 5, PTH + 60 μg/ml): 94.6 ± 1.2% | ^45 Calcium in Fetal Bone Released into Media (%) after 2 days incubation ([2]; Table 5, PTH + 120 μg/ml): 50.3 ± 3.1% | ^45 Calcium in fetal bone Released into media (%) after 5 days incubation ([2]; Table 5, PTH + 120 μg/ml): 90.2 ± 3.1% | ^45 Calcium in Fetal Bone Released into Media (%) after 2 days incubation ([2]; Table 5, PTH + 200 μg/ml): 50.9 ± 1.3% | ^45 Calcium in fetal bone Released into media (%) after 5 days incubation ([2]; Table 5, PTH + 200 μg/ml): 92.1 ± 0.6% | effect on PTH-enhanced bone resorption, in words [2]: no detectable effect

C[C@H]1c2cccc(O)c2C(O)=C2C(=O)[C@]3(O)C(O)=C(C(N)=O)C(=O)[C@@H](N(C)C)[C@@H]3[C@@H](O)[C@@H]21 [doxycycline, Doxycycline]
Collagenolytic Activity: % ^14 C-collagen gel lyzed [1]: 4.5% | ^45 Calcium in Fetal Bone Released into Media (%) after 2 days incubation ([2]; Table 4, first column, PTH + 0.2 μg/ml): 56.6 ± 2.0% | ^45 Calcium in Fetal Bone Released into Media (%) after 2 days incubation ([2]; Table 4, first column, PTH + 2.0 μg/ml): 57.5 ± 2.5% | ^45 Calcium in Fetal Bone Released into Media (%) after 2 days incubation ([2]; Table 4, first column, PTH + 20 μg/ml): 30.6 ± 1.7% | ^45 Calcium in Fetal Bone Released into Media (%) after 2 days incubation ([2]; Table 4, first column, PTH + 200 μg/ml): 18.8 ± 1.1% | ^45 Calcium in Fetal Bone Released into Media (%) after 2 days incubation ([2]; Table 4, second column, PTH + 0.2 μg/ml): 97.1 ± 0.7% | ^45 Calcium in Fetal Bone Released into Media (%) after 2 days incubation ([2]; Table 4, second column, PTH + 2.0 μg/ml): 93.5 ± 1.7% | ^45 Calcium in Fetal Bone Released into Media (%) after 2 days incubation ([2]; Table 4, second column, PTH + 20 μg/ml): 35.3 ± 1.6% | ^45 Calcium in Fetal Bone Released into Media (%) after 2 days incubation ([2]; Table 4, second column, PTH + 200 μg/ml): 28.7 ± 0.8% | effect on PTH-enhanced bone resorption, in words [2]: inhibited bone resorption in a dose responsive manner

CC1(C)S[C@@H]2[C@H](NC(=O)Cc3ccccc3)C(=O)N2[C@H]1C(=O)O [penicillin]
GCF flow [3, 5]: little or no effect | Gram-positive and Gram-negative organisms in the pockets [3, 5]: reduced the Gram-positive but increased the Gram-negative organisms | active GCF collagenase [3, 5]: little or no effect | pocket depth [3, 5]: little or no effect | total GCF collagenase (after trypsin pretreatment) [3, 5]: appeared to increase | Gingival Index (G. I.) ([3]; penicillin G 1 g per day (patient three) or minocycline 200 mg/day (patient one)): little or no effect | effect on PTH-enhanced bone resorption, in words [2]: no detectable effect

[H]/N=C(/N)N[C@H]1[C@H](O)[C@@H](O)[C@H](O[C@@H]2O[C@@H](C)[C@](O)(C=O)[C@H]2O[C@@H]2O[C@@H](CO)[C@H](O)[C@@H](O)[C@@H]2NC)[C@@H](N/C(N)=N\[H])[C@@H]1O [streptomycin]
effect on PTH-enhanced bone resorption, in words [2]: no detectable effect

PTH: parathyroid hormone, human synthetic 1-34 peptide, Beckman Instruments, final concentration 1.0 μg/ml
increase of the loss of radiolabeled calcium by addition of PTH ([2]; PTH 1.0 μg/ml versus culture media alone, Tables 3-5): 90-160% | ^45 Calcium in Fetal Bone Released into Media (%) after 2 days incubation ([2]; Table 3, PTH alone 1.0 μg/ml, no addition 19.9 ± 1.5): 46.1 ± 1.9% | ^45 Calcium in fetal bone Released into media (%) after 5 days incubation ([2]; Table 3, PTH alone 1.0 μg/ml, no addition 27.6 ± 1.3): 73.3 ± 1.3% | ^45 Calcium in Fetal Bone Released into Media (%) after 2 days incubation ([2]; Table 4, PTH alone, no addition 27.1 ± 1.0): 61.6 ± 1.2% | ^45 Calcium in Fetal Bone Released into Media (%) after 2 days incubation ([2]; Table 4, PTH alone, no addition 50.8 ± 1.8): 97.9 ± 0.7% | ^45 Calcium in Fetal Bone Released into Media (%) after 2 days incubation ([2]; Table 5, PTH alone, no addition 22.4 ± 0.7): 51.2 ± 1.4% | ^45 Calcium in fetal bone Released into media (%) after 5 days incubation ([2]; Table 5, PTH alone, no addition 46.7 ± 3.0): 91.9 ± 1.7%

B1: Trypsin: protease control for non-specific proteolysis of the collagen substrate (protein, UniProt P00760 24-246, looked up)
Serine protease 1: IVGGYTCGANTVPYQVSLNSGYHFCGGSLINSQWVVSAAHCYKSGIQVRLGEDNINVVEGNEQFISASKSIVHPSYNSNTLNNDIMLIKLKSAASLNSRVASISLPTSCASAGTQCLISGWGNTKSSGTSYPDVLKCLKAPILSDSSCKSAYPGQITSNMFCAGYLEGGKDSCQGDSGGPVVCSGKLQGIVSWGSGCAQKNKPGVYTKVCNYVSWIKQTIASN
Collagenolytic Activity: % ^14 C-collagen gel lysed [4]: 2.6%
